From patent US20220096450A1, “Compounds and Methods for Treating or Preventing Heart Failure” (DREXEL UNIVERSITY, priority 2019, published 2022) come the findings set out here.

In the first assay the target is SQOR (Homo sapiens, UniProt Q9Y6N5). The assay is described as follows: DCIP endpoint assay of SQOR activity. Type of assay: biochemical. The note with it: Table 1, SAR of Set A/A′ and Set B; read-out: IC50. The procedure: The assay is based on the ability of reduced CoQ1, which is produced in the SQOR reaction, to nonenzymically reduce 2,6-dichloroindiphenol (DCIP) (Δεox-red=20 mM−1 cm−1 at 600 nm). Reaction mixtures containing SQOR, substrates (H2S, sulfite, CoQ1) and various concentrations of an inhibitor are incubated in 96-well plates for 60 s. The reactions are quenched by addition of formaldehyde and N-ethylmaleimide to denature SQOR and consume unreacted H2S, respectively, and are then incubated for 10 min prior to addition of DCIP. The absorbance at 600 nm is read 30 s after DCIP addition by using a BioTek Synergy 2 plate reader.
Sequence of SQOR (Q9Y6N5 whole entry): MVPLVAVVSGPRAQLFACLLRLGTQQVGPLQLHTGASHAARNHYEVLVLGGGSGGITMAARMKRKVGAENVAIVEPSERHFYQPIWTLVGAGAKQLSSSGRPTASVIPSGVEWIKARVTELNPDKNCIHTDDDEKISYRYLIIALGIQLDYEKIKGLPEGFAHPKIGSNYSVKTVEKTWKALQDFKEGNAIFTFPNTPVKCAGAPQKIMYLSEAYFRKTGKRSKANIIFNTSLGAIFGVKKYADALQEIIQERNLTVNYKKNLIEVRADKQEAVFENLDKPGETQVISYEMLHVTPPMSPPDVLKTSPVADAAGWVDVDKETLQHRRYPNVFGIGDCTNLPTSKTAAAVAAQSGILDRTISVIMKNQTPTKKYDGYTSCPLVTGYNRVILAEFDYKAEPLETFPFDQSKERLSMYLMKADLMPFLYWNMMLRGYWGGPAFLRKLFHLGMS
Regarding `O=[N+]([O-])c1cc(Cl)c(-n2cccc2)cc1N1CCCC1` [Compound 20, 1-(2-chloro-4-nitro-5-(pyrrolidin-1-yl)phenyl)-1H-pyrrole], the IC50 (in general, the concentration that gives 50% inhibition) is 460 nM.

The assay is the same for the next values; noted with them: Table 2, SAR of Set C; read-out: IC50.
On to `Cc1cc([N+](=O)[O-])c(Sc2ccc(Cl)cc2)cc1C1SCCS1` [Compound 32, 2-(5-((4-chlorophenyl)thio)-2-methyl-4-nitrophenyl)-1,3-dithiolane], for which the IC50 worked out at 24 nM.

With `Cc1cc([N+](=O)[O-])c(S(=O)(=O)c2ccccc2)cc1C(=O)c1ccccc1` [Compound 33, (2-methyl-4-nitro-5-(phenylsulfonyl)phenyl)(phenyl)methanone], the IC50 came to 152 nM.

`COc1ccc(Sc2ccc(C)cc2)c([N+](=O)[O-])c1` [Compound 34, (4-methoxy-2-nitrophenyl)(p-tolyl)sulfane]: the IC50 is 4900 nM.

The assay is the same for the next values; noted with them: Table 3; read-out: IC50.
For `CCOC(=O)N1CCN(CCOc2nc(-c3ncccc3C)cc(-c3ccc(F)cc3)c2C#N)CC1` [Ethyl 4-(2-(3-cyano-4-(4-fluorophenyl)-6-(3-methylpyridin-2-yl)pyridin-2-yloxy)ethyl)piperazine-1-carboxylate], the IC50 stood at 230 nM.

In the case of `Cc1cccnc1-c1cc(-c2ccc(F)cc2)c(C#N)c(OCCN2CCN(C(=O)OC(C)C)CC2)n1` [Isopropyl 4-(2-(3-cyano-4-(4-fluorophenyl)-6-(3-methylpyridin-2-yl)pyridin-2-yloxy)ethyl)piperazine-1-carboxylate], the IC50 worked out at 120 nM.

As to `COC(=O)COCCOc1nc(-c2ncccc2C)cc(-c2ccc(F)cc2)c1C#N` [Methyl 2-(3-cyano-4-(4-fluorophenyl)-6-(3-methylpyridin-2-yl)pyridin-2-yloxy) 2-(2-methoxyethoxy) acetate], the IC50 was 96 nM.

With `COC(=O)N1CCN(CCOc2nc(-c3ncccc3C)cc(-c3ccc(F)cc3)c2C#N)CC1` [Methyl 4-(2-(3-cyano-4-(4-fluorophenyl)-6-(3-methylpyridin-2-yl)pyridin-2-yloxy)ethyl)piperazine-1-carboxylate], the IC50 was determined as 540 nM.

Consider `CC(=O)NCCOc1nc(-c2ccccn2)cc(-c2ccc(F)cc2)c1C#N` [N-(2-(3-Cyano-4-(4-fluorophenyl)-6-(pyridin-2-yl)pyridin-2-yloxy)ethyl)acetamide], for which the IC50 turned out to be 1900 nM.

As to `Cc1cccnc1-c1cc(-c2ccc(F)cc2)c(C#N)c(OCCN2CCN(C(=O)OC(C)(C)C)CC2)n1` [tert-Butyl 4-(2-(3-cyano-4-(4-fluorophenyl)-6-(3-methylpyridin-2-yl)pyridin-2-yloxy)ethyl)piperazine-1-carboxylate], the IC50 came out at 43 nM.
